Results from paper PMC8185074, “Anchor extension: a structure-guided approach to design cyclic peptides targeting enzyme active sites” (Nature Communications, 2021).

Tests used:
Type in all cases: biochemical
HDAC3 = molecular target: T1, HDAC3 (Homo sapiens, UniProt O15379); experiment: HDAC3 inhibition, full IC50 measurement (Reaction Biology; fluorogenic p53 peptide RHKK(Ac)AMC)
T1 construct: purchased Reaction Biology Corporation (assay run by the CRO)
Procedure, shortened: (§1)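 Reaction: enzyme plus acoustically dispensed peptide inhibitor, 50 μM RHKK(Ac)AMC substrate, pH 8.0 Tris buffer with BSA and 1% DMSO, 1 h, 30 °C. Duplicates averaged.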

HDAC6 = molecular target: T2, HDAC6 (Homo sapiens, UniProt Q9UBN7); experiment: HDAC6 inhibition, full IC50 measurement (Reaction Biology; fluorogenic p53 peptide RHKK(Ac)AMC)
T2 construct: purchased Reaction Biology Corporation (assay run by the CRO)
T2 sequence (Q9UBN7 1-1215): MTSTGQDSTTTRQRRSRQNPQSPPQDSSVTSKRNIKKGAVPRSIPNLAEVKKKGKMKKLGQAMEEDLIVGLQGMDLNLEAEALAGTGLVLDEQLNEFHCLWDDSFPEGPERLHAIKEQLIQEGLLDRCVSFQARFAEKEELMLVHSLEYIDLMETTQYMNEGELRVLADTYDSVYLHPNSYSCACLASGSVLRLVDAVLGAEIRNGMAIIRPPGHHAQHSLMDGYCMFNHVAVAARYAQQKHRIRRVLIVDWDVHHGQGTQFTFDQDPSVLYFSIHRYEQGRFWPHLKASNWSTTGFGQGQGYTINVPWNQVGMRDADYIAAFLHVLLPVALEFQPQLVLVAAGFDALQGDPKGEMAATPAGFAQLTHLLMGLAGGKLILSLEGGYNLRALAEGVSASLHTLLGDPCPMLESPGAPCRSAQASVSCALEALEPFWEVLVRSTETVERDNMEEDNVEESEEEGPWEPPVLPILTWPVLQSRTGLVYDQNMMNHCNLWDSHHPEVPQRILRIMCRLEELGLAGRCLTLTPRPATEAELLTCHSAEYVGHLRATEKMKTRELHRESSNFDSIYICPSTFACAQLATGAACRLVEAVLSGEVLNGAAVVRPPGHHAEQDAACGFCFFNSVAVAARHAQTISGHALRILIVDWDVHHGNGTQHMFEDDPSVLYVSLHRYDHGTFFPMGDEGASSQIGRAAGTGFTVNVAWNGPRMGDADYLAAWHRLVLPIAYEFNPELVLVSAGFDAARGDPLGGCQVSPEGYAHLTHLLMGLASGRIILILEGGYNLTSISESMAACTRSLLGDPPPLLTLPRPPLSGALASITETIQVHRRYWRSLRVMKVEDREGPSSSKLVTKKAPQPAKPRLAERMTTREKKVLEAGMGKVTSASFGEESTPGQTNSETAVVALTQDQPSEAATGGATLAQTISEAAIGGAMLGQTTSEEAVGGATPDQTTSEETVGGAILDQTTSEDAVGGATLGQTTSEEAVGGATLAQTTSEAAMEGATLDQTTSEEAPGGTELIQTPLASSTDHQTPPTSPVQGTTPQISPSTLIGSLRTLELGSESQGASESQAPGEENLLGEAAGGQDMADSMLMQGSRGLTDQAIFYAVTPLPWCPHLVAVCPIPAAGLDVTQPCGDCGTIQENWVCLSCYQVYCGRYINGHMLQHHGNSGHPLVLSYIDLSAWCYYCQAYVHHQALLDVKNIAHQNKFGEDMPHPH
Procedure, shortened: as §1

HDAC1 = molecular target: T3, HDAC1 (Homo sapiens, UniProt Q13547); experiment: HDAC1 inhibition, full IC50 measurement (Reaction Biology; fluorogenic p53 peptide RHKK(Ac)AMC)
T3 construct: purchased Reaction Biology Corporation (assay run by the CRO)
T3 sequence (Q13547 whole entry): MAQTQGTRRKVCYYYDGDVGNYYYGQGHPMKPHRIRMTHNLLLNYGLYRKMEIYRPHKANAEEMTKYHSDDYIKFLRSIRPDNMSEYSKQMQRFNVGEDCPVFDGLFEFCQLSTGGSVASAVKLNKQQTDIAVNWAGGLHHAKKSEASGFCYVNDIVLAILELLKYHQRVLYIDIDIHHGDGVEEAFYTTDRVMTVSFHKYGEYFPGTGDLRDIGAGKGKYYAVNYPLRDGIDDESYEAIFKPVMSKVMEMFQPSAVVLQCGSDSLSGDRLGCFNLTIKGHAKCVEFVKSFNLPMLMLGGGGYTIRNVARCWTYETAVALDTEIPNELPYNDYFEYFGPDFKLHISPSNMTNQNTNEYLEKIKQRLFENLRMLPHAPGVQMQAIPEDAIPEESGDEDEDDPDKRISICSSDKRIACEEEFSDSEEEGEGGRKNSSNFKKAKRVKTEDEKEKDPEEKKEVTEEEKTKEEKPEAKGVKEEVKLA
Method: The assay was performed using 50 μM fluorogenic peptide from p53 residues 379-382 [RHKK(Ac)AMC] in a base reaction buffer of 50 mM Tris-HCl at pH 8.0, 137 mM NaCl, 2.7 mM KCl, 1 mM MgCl2, and freshly added 1 mg/ml BSA and 1% DMSO. Peptides were first dissolved in DMSO and then added to the reaction mixture with the enzyme using acoustic technique, enough to reach the desired concentration for that assay point. Peptide concentrations were calculated based on mass of lyophilized peptide and its molecular weight. The substrate was then added and incubated for 1 hour at 30 °C in a sealed container. After the incubation, developer was added to stop the reaction and develop color. Kinetic measurements were then performed for 20 min with Envision with 5 min intervals (Ex/Em = 360/460 nm). The endpoint after plateau was taken for IC50 measurement.
In cases where duplicate measures are used, average data is reported in the main text or Supplementary Tables.

T1 sequence (O15379 whole entry): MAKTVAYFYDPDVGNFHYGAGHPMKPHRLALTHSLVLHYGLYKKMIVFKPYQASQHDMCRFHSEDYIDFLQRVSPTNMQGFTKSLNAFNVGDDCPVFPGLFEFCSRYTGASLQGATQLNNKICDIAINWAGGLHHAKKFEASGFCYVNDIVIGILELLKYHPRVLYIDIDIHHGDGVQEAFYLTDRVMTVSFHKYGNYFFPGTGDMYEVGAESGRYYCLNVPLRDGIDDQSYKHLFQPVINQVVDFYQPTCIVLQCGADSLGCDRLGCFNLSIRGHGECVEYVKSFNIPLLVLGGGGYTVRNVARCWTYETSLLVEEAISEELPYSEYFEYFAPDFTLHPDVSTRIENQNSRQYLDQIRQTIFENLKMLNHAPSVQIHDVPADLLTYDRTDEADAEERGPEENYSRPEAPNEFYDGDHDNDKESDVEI
T1 sequence (Q9Y618 395-489 partner limits assumed): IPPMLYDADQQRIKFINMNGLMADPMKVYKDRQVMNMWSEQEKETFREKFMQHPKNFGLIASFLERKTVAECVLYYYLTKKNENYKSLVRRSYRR

**Q.** Which results are given for `N[C@@H](CCCCCS)C(=O)O` [SHA, 2S-2-amino-7-sulfanylheptanoic acid]?
**A.** HDAC3 inhibition potency in words (HDAC3): low micro-molar to high nano-molar affinities; HDAC3 raw activity signal (HDAC3; Conc. 1.00E-05 M): 305013; HDAC3 raw activity signal (HDAC3; Conc. 1.11E-06 M): 772070; HDAC3 raw activity signal (HDAC3; Conc. 1.23E-07 M): 916440; HDAC3 raw activity signal (HDAC3; Conc. 1.37E-08 M): 1023518; HDAC3 raw activity signal (HDAC3; Conc. 1.52E-09 M): 969054; HDAC3 raw activity signal (HDAC3; Conc. 3.33E-06 M): 650146; HDAC3 raw activity signal (HDAC3; Conc. 3.70E-07 M): 835487; HDAC3 raw activity signal (HDAC3; Conc. 4.12E-08 M): 896484; HDAC3 raw activity signal (HDAC3; Conc. 4.57E-09 M): 995503; HDAC3 raw activity signal (HDAC3; Conc. 5.08E-10 M): 959845; HDAC6 inhibition potency in words (HDAC6): low micro-molar to high nano-molar affinities; HDAC6 raw activity signal (HDAC6; Conc. 1.00E-05 M): 33328; HDAC6 raw activity signal (HDAC6; Conc. 1.11E-06 M): 230710; HDAC6 raw activity signal (HDAC6; Conc. 1.23E-07 M): 527992; HDAC6 raw activity signal (HDAC6; Conc. 1.37E-08 M): 589576; HDAC6 raw activity signal (HDAC6; Conc. 1.52E-09 M): 605039; HDAC6 raw activity signal (HDAC6; Conc. 3.33E-06 M): 100537; HDAC6 raw activity signal (HDAC6; Conc. 3.70E-07 M): 381738; HDAC6 raw activity signal (HDAC6; Conc. 4.12E-08 M): 574853; HDAC6 raw activity signal (HDAC6; Conc. 4.57E-09 M): 596934; HDAC6 raw activity signal (HDAC6; Conc. 5.08E-10 M): 614098; IC50 (HDAC6; read-out: HDAC6 IC50): 600 nM; HDAC1 inhibition potency in words (HDAC1): low micro-molar to high nano-molar affinities; HDAC1 raw activity signal (HDAC1; Conc. 1.00E-05 M): 155805; HDAC1 raw activity signal (HDAC1; Conc. 1.11E-06 M): 648714; HDAC1 raw activity signal (HDAC1; Conc. 1.23E-07 M): 748850; HDAC1 raw activity signal (HDAC1; Conc. 1.37E-08 M): 768411; HDAC1 raw activity signal (HDAC1; Conc. 1.52E-09 M): 737474; HDAC1 raw activity signal (HDAC1; Conc. 3.33E-06 M): 525567; HDAC1 raw activity signal (HDAC1; Conc. 3.70E-07 M): 713862; HDAC1 raw activity signal (HDAC1; Conc. 4.12E-08 M): 763721; HDAC1 raw activity signal (HDAC1; Conc. 4.57E-09 M): 780017; HDAC1 raw activity signal (HDAC1; Conc. 5.08E-10 M): 759317
